Measured values reported in PMC10600239, “Selective MCL-1 inhibitor ABBV-467 is efficacious in tumor models but is associated with cardiac troponin increases in patients” (Communications Medicine, 2023).
Values joined by “and” are separate entries in the source; they are usually repeats but may differ in a detail not shown here. Equal values may be shown once.

How the values were obtained:
[1] = test system: H929 cells; test: Caspase-3/7 activation, Δψm and annexin-V positivity by flow cytometry; format: cell-based, human; parameters: MMP / H929 zVAD Fig 2C: unit not given here; conditions: for Caspase-3/-7 Activation / MMP / H929 zVAD Fig 2C: H929; for Caspase-3/-7 Activation: Fig 2A; for MMP: Fig 2B
Method: H929 cells cultured in RPMI 1640 medium (Sigma, St. Louis, MO) supplemented with 10% fetal bovine serum (Gibco, Grand Island, NY) were pretreated with a pan-caspase inhibitor z-VAD-fmk (MP Biomedicals, Solon, OH; 50 µM) for 1 h before the addition of ABBV-467 for a further 6 h. Cells were then washed twice with Dulbecco’s phosphate-buffered saline and resuspended in staining buffer for determination of caspase-3/7 activation, Δψm, and annexin-V positivity using the Intellicyt MultiCyt 4-Plex Kit and high-content flow cytometry (Intellicyt, Albuquerque, NM).

[2] = test system: H929 cells; test: Caspase-3/7 activation and viability (DRAQ7) over time by Incucyte; format: cell-based, human
Method: Fig. 2 Apoptosis induced by ABBV-467 is mechanism based and induces cell death in MCL-1-dependent cell lines after short target engagement periods. H929 cells were treated with ABBV-467 in the presence or absence of the pan-caspase inhibitor z-VAD-fmk (50 µM) and the impact on caspase-3/7 activation (a), mitochondrial membrane potential (ΔΨm; b), and apoptosis (c) determined. Alternatively, BAK-deficient SKBR3 cells were treated with ABBV-467 for 24 h and the impact on cell viability compared with the parental cell line, determined by CellTiter-Glo. Inset depicts a western blot of BAK and BAX expression in SKBR3 cell variants using GAPDH as a loading control. Each of the 3 proteins were probed on separate blots (d). Data in (a–d) are presented as the mean ± standard error of the mean. H929 and AMO-1 cells were treated with ABBV-467 at the indicated concentrations and the impact on caspase-3/7 activation and viability (DRAQ7-positive) cells determined over time by Incucyte®. Data are presented as the mean ± standard deviation (e). H929 or AMO-1 cells were cultured in media containing 10% human serum and treated with ABBV-467 for the indicated contact times. Cells were subsequently washed 3 times with drug-free media and incubated in drug-free media for the remainder of the 24-h treatment period at 37 °C before cell viability was determined by CellTiter-Glo. Mean EC50 and EC90 values were determined from the resulting dose-response curves from at least 3 independent experiments, each assessed in quadruplicate, and depict the mean ± standard error of the mean. Presented ABBV-467 dose-response curves in H929 and AMO-1 cells were compiled from at least 3 independent experiments (f).

Q: Which results are given for `Cc1c(Cl)c2c(Cl)c(C)c1-c1c(-c3ccc(F)cc3)sc3ncnc(c13)O[C@@H](C(=O)O)Cc1cc(ccc1OCc1ccnc(-c3ccc(OC[C@H]4COCCO4)cc3)n1)OC[C@@H](CN1CCN(C)CC1)O2` [ABBV-467]?
A: Caspase-3/-7 Activation ([1]; Log [ABBV-467] uM 0.045757): 53.8099 and 53.0567 and 99.0546 and 98.9774; Caspase-3/-7 Activation ([1]; Log [ABBV-467] uM 0.522879): 56.0913 and 57.1822 and 99.1897 and 99.0858; Caspase-3/-7 Activation ([1]; Log [ABBV-467] uM 1): 64.5099 and 63.3101 and 99.1237 and 99.059; MMP ([1]; Log [ABBV-467] uM 1): 45.9293; Caspase-3/-7 Activation ([1]; Log [ABBV-467] uM -0.43136): 50.714 and 51.6373 and 98.7601 and 98.6341; MMP ([1]; Log [ABBV-467] uM -0.90849): 38.9227; Caspase-3/-7 Activation ([1]; Log [ABBV-467] uM -1.86273): 33.5112 and 33.8695 and 61.3327 and 57.2365; MMP ([1]; Log [ABBV-467] uM -1.86273): 31.9106 and 36.0956 and 42.4956 and 39.7476; Caspase-3/-7 Activation ([1]; Log [ABBV-467] uM -2.33985): 30.5735 and 30.5502 and 33.1767 and 32.117; MMP ([1]; Log [ABBV-467] uM -2.81697): 29.9048; H929 zVAD Fig 2C ([1]; Vehicle, Log [ABBV-467] uM 0.522879): 78.4582 and 79.5333 and 93.9539 and 93.9739; H929 zVAD Fig 2C ([1]; Vehicle, Log [ABBV-467] uM 1): 82.31 and 82.4987 and 93.6098 and 94.0208; H929 zVAD Fig 2C ([1]; Vehicle, Log [ABBV-467] uM -0.90849): 61.8581 and 57.4223 and 88.7815 and 89.1451; H929 zVAD Fig 2C ([1]; Vehicle, Log [ABBV-467] uM -1.86273): 33.1301 and 34.5804 and 48.8387 and 44.3698; H929 zVAD Fig 2C ([1]; Vehicle, Log [ABBV-467] uM -2.81697): 10.2236; H929 zVAD Fig 2C ([1]; z-VAD-fmk, Log [ABBV-467] uM 0.045757): 25.2697; H929 zVAD Fig 2C ([1]; z-VAD-fmk, Log [ABBV-467] uM 1): 9.553 and 7.075; H929 zVAD Fig 2C ([1]; z-VAD-fmk, Log [ABBV-467] uM -0.43136): 25.945; H929 zVAD Fig 2C ([1]; z-VAD-fmk, Log [ABBV-467] uM -1.38561): 25.2659; H929 zVAD Fig 2C ([1]; z-VAD-fmk, Log [ABBV-467] uM -1.86273): 25.2352; H929 zVAD Fig 2C ([1]; z-VAD-fmk, Log [ABBV-467] uM -2.33985): 25.2036; hallmarks of apoptosis induced ([1]; H929 cells, 6 h): dose-dependent loss in mitochondrial membrane potential, caspase-3/7 activation, and phosphatidyl serine externalization; effect of pan-caspase inhibition with z-VAD-fmk on induced apoptosis ([1]; z-VAD-fmk 50 µM): abrogated; Caspase-3/-7 Activation ([2]; ABBV-467 0.01 nM, 0 hours): 232.365; Caspase-3/-7 Activation ([2]; ABBV-467 0.01 nM, 1 hours): 224.632; Caspase-3/-7 Activation ([2]; ABBV-467 0.01 nM, 2 hours): 270.553; Caspase-3/-7 Activation ([2]; ABBV-467 0.01 nM, 3 hours): 259.728; Caspase-3/-7 Activation ([2]; ABBV-467 0.01 nM, 4 hours): 277.62; Caspase-3/-7 Activation ([2]; ABBV-467 0.01 nM, 5 hours): 289.07; Caspase-3/-7 Activation ([2]; ABBV-467 0.01 nM, 6 hours): 301.552; Caspase-3/-7 Activation ([2]; ABBV-467 0.01 nM, 7 hours): 311.821; Caspase-3/-7 Activation ([2]; ABBV-467 0.01 nM, 8 hours): 334.669; Caspase-3/-7 Activation ([2]; ABBV-467 0.01 nM, 9 hours): 348.392; Caspase-3/-7 Activation ([2]; ABBV-467 0.01 nM, 10 hours): 365.28; Caspase-3/-7 Activation ([2]; ABBV-467 0.01 nM, 11 hours): 391.805; Caspase-3/-7 Activation ([2]; ABBV-467 0.01 nM, 12 hours): 438.261; Caspase-3/-7 Activation ([2]; ABBV-467 0.01 nM, 13 hours): 454.339; Caspase-3/-7 Activation ([2]; ABBV-467 0.01 nM, 14 hours): 484.741; Caspase-3/-7 Activation ([2]; ABBV-467 0.1 nM, 0 hours): 225.588; Caspase-3/-7 Activation ([2]; ABBV-467 0.1 nM, 1 hours): 235.59; Caspase-3/-7 Activation ([2]; ABBV-467 0.1 nM, 2 hours): 274.692; Caspase-3/-7 Activation ([2]; ABBV-467 0.1 nM, 3 hours): 258.216; Caspase-3/-7 Activation ([2]; ABBV-467 0.1 nM, 4 hours): 255.874; Caspase-3/-7 Activation ([2]; ABBV-467 0.1 nM, 5 hours): 269.765; Caspase-3/-7 Activation ([2]; ABBV-467 0.1 nM, 6 hours): 277.457; Caspase-3/-7 Activation ([2]; ABBV-467 0.1 nM, 7 hours): 313.21; Caspase-3/-7 Activation ([2]; ABBV-467 0.1 nM, 8 hours): 322.526; Caspase-3/-7 Activation ([2]; ABBV-467 0.1 nM, 9 hours): 349.891; Caspase-3/-7 Activation ([2]; ABBV-467 0.1 nM, 10 hours): 382.789; Caspase-3/-7 Activation ([2]; ABBV-467 0.1 nM, 11 hours): 408.8; Caspase-3/-7 Activation ([2]; ABBV-467 0.1 nM, 12 hours): 435.203; Caspase-3/-7 Activation ([2]; ABBV-467 0.1 nM, 13 hours): 463.242; Caspase-3/-7 Activation ([2]; ABBV-467 0.1 nM, 14 hours): 524.814; Caspase-3/-7 Activation ([2]; ABBV-467 1 nM, 0 hours): 207.355; Caspase-3/-7 Activation ([2]; ABBV-467 1 nM, 1 hours): 234.094; Caspase-3/-7 Activation ([2]; ABBV-467 1 nM, 2 hours): 278.959; Caspase-3/-7 Activation ([2]; ABBV-467 1 nM, 3 hours): 292.278; Caspase-3/-7 Activation ([2]; ABBV-467 1 nM, 4 hours): 394.898; Caspase-3/-7 Activation ([2]; ABBV-467 1 nM, 5 hours): 570.705; Caspase-3/-7 Activation ([2]; ABBV-467 1 nM, 6 hours): 716.626; Caspase-3/-7 Activation ([2]; ABBV-467 1 nM, 7 hours): 887.617; Caspase-3/-7 Activation ([2]; ABBV-467 1 nM, 8 hours): 1099.54; Caspase-3/-7 Activation ([2]; ABBV-467 1 nM, 9 hours): 1287.07; Caspase-3/-7 Activation ([2]; ABBV-467 1 nM, 10 hours): 1419.14; Caspase-3/-7 Activation ([2]; ABBV-467 1 nM, 11 hours): 1610.17; Caspase-3/-7 Activation ([2]; ABBV-467 1 nM, 12 hours): 1722.67; Caspase-3/-7 Activation ([2]; ABBV-467 1 nM, 13 hours): 1826.71; Caspase-3/-7 Activation ([2]; ABBV-467 1 nM, 14 hours): 1859.69; Caspase-3/-7 Activation ([2]; ABBV-467 10 nM, 0 hours): 233.175; Caspase-3/-7 Activation ([2]; ABBV-467 10 nM, 1 hours): 264.944; Caspase-3/-7 Activation ([2]; ABBV-467 10 nM, 2 hours): 553.515; Caspase-3/-7 Activation ([2]; ABBV-467 10 nM, 3 hours): 945.842; Caspase-3/-7 Activation ([2]; ABBV-467 10 nM, 4 hours): 1332.17; Caspase-3/-7 Activation ([2]; ABBV-467 10 nM, 5 hours): 1650.46; Caspase-3/-7 Activation ([2]; ABBV-467 10 nM, 6 hours): 1813.36; Caspase-3/-7 Activation ([2]; ABBV-467 10 nM, 7 hours): 2014.88; Caspase-3/-7 Activation ([2]; ABBV-467 10 nM, 8 hours): 2144.69; Caspase-3/-7 Activation ([2]; ABBV-467 10 nM, 9 hours): 2203.21; Caspase-3/-7 Activation ([2]; ABBV-467 10 nM, 10 hours): 2258.19; Caspase-3/-7 Activation ([2]; ABBV-467 10 nM, 11 hours): 2283.58; Caspase-3/-7 Activation ([2]; ABBV-467 10 nM, 12 hours): 2310.22; Caspase-3/-7 Activation ([2]; ABBV-467 10 nM, 13 hours): 2302.82; Caspase-3/-7 Activation ([2]; ABBV-467 10 nM, 14 hours): 2302.28; Caspase-3/-7 Activation ([2]; ABBV-467 100 nM, 0 hours): 208.608; Caspase-3/-7 Activation ([2]; ABBV-467 100 nM, 1 hours): 451.845; Caspase-3/-7 Activation ([2]; ABBV-467 100 nM, 2 hours): 1550.74; Caspase-3/-7 Activation ([2]; ABBV-467 100 nM, 3 hours): 2054.45; Caspase-3/-7 Activation ([2]; ABBV-467 100 nM, 4 hours): 2191.43; Caspase-3/-7 Activation ([2]; ABBV-467 100 nM, 5 hours): 2357.93; Caspase-3/-7 Activation ([2]; ABBV-467 100 nM, 6 hours): 2394.62; Caspase-3/-7 Activation ([2]; ABBV-467 100 nM, 7 hours): 2491.07; Caspase-3/-7 Activation ([2]; ABBV-467 100 nM, 8 hours): 2431.58; Caspase-3/-7 Activation ([2]; ABBV-467 100 nM, 9 hours): 2418.59; Caspase-3/-7 Activation ([2]; ABBV-467 100 nM, 10 hours): 2357.71; Caspase-3/-7 Activation ([2]; ABBV-467 100 nM, 11 hours): 2329.52; Caspase-3/-7 Activation ([2]; ABBV-467 100 nM, 12 hours): 2294.27; Caspase-3/-7 Activation ([2]; ABBV-467 100 nM, 13 hours): 2277.8; Caspase-3/-7 Activation ([2]; ABBV-467 100 nM, 14 hours): 2211.71; Caspase-3/-7 Activation ([2]; ABBV-467 100 nM, 15 hours): 2210.67
